Measurements as given in patent US8507756B2, “Plant protection” (Plant Bioscience Limited, priority 2007, dated 2013).

How the values were obtained:
Type in all cases: in vivo
[1] = test system: Tetranychus urticae (two-spotted spider mite); experiment: JA seed treatment, tomato plants challenged with two-spotted spider mite; conditions: tomato cv. Carousel
Description: (§1) Tomato, pepper, maize and wheat seeds were treated with 3 mM JA or 1.5 mM JA solutions or with 3 mM methyl jasmonate (MeJA) or with deionised water containing 42.8 mM ethanol (control) by full submersion of up to 40 seeds in a Petri dish of solution wrapped in foil for a period of 24 hours at 4° C. in a fridge. A temperature of 4° C. was used both to prevent degradation of the jasmonic acid solutions and to prevent germination of the seeds.
The seeds were then removed from the treatment solution and washed in 1 liter of deionised water for 5 minutes to remove the JA or MeJA coating the outside of the seeds.
Tomato seeds were sown in rockwool blocks and grown on peat-based compost in glass houses at 12° C.-28° C. under artificial light on a 16 hour light and 8 hour dark cycle for 48, 56 or 70 days.
(§2) Tomato plants were then challenged with Tetranychus urticae (two-spotted spider mite) which were allowed to feed for 9 days, Manduca sexta (tobacco hornworm) caterpillars which were allowed to feed for 4 days or Myzus persicae (aphid), which were allowed to feed for 10 or 12 days. In each case these organisms were restricted to the plant on which they had originally been placed. Pepper plants were challenged with Myzus persicae (aphid), which were allowed to feed for 2 weeks. Maize and wheat plants were challenged with Spodoptera exempta caterpillars which were allowed to feed for 2 days (maize) or 3 days (wheat).
The effect of Tetranychus urticae on plants was measured by means of counting the number of live and dead mites on each plant and the number of mite eggs present using a dissecting microscope.
Seeds of a UK commercial F1 hybrid tomato variety (cv. Carousel) were treated with either 1.5 or 3.0 mM jasmonic acid (JA) and 42.8 mM ethanol in deionised H2O for a period of 24 hours at 4° C. in the dark. Those seeds were then removed from solution and washed in deionised H2O only to remove the JA coating the outside of the seed. Those seed were then germinated in a commercial manner using rockwool blocks and were grown on under glasshouse conditions appropriate to this crop. Plants were challenged with two-spotted spider mite (Tetranychus urticae) 7 weeks after treatment a common crop pest, acting here as a “model herbivore”.

[2] = test system: Manduca sexta (tobacco hornworm); experiment: JA seed treatment, tomato plants challenged with Manduca sexta caterpillars; conditions: tomato cv. Carousel, seed treatment 1.5 mM JA, 4 days feeding
Description: as §1
as §2, with “Maize and wheat plants were challenged with Spodoptera exempta caterpillars which were allowed to feed for 2 days (maize) or 3 days (wheat).” left out
The effect of Manduca sexta or Spodoptera exempta on plants was determined by measurement of the leaf area eaten, measured using a leaf area meter.
Seeds of a UK commercial F1 hybrid tomato variety (cv. Carousel) were treated with 1.5 mM jasmonic acid (JA), and plants grown in conditions appropriate to this crop (as described under Example 1). […] Caterpillars were allowed to feed on the plants for four days and the area of grazed leaves was then measured. […]

[3] = test system: tomato (Solanum lycopersicum cv "Carousel") seeds; experiment: Effect of JA seed treatment on seed germination of tomato
Excerpt: The illustrated data are means of 10 replicate populations+/−standard error of the mean, and the line is a fitted dose response.

pepper = experiment: Long term growth and yield study after JA seed treatment, pepper; conditions: seed treatment 1.5 or 3.0 mM JA, weekly harvests
Excerpt: Data are means of 8 replicate plants+/−standard error of the mean, and the line is a fitted growth response.

CC/C=C\C[C@H]1C(=O)CC[C@@H]1CC(=O)O [JA, jasmonic acid]
Observed resistance induced against spider mite ([1]; 8 weeks after application of the JA to the seeds): significant
Visual damage caused by red spider mite attack (pale stippling of the leaf surface) ([1]; seed treatment 3.0 mM JA vs control, challenged 7 weeks after treatment): substantially reduced
Reproductive rate of the mite measured by egg production (eggs per adult female) compared with control plants ([1]; seed treatment 1.5 or 3.0 mM JA, 10 replicates): significant reduction
Population of two-spotted spider mite on the leaves (number of live mites) compared with control plants ([1]; seed treatment 1.5 or 3.0 mM JA, mites fed 9 days, 10 replicates): significant reduction
Caterpillar growth, less than those feeding on controls [2]: 20%
Leaf area remaining after grazing, compared with controls ([2]; challenged 8 weeks after seed treatment): significantly higher
JA concentration that significantly reduced the final percentage germination ([3]; JA between 0.001 and 50 mM tested, germination 7 days after sowing): > 10 mM
Final percentage germination ([3]; seed treatment 1.5 or 3.0 mM JA): no significant effects
Delay of seed germination ([3]; seed treatment 1.5 or 3.0 mM JA, 24 hours at 4 C in the dark): delayed by approximately one day
Vegetative or reproductive growth, or commercial yield (pepper): no significant effect
